Source: patent US8507219B2, “Method of treating inflammation with statins” (MUSC Foundation for Research Development, priority 1997, dated 2013)
“Also recorded” adds a separate entry of the source.

What was measured:
[1] = system: TNF-α production in rat primary microglia; test: LPS-induced TNF-α production (ELISA) in rat primary microglia; type: cell-based
Experimental: (§1) Determination of TNF-α and IL-1β in culture supernatants Cells were stimulated with LPS in serum-free media for 24 h in the presence or absence of forskolin or rolipram, and concentrations of TNF-α and IL-1β were measured in culture supernatants by using high-sensitivity enzyme-linked immunosorbent assay (R&D Systems, USA) according to the manufacturer's instructions.

iNOS = test: Expression of iNOS protein (immunoblot) and mRNA (Northern) in rat primary astrocytes; type: cell-based; conditions: 10 μM forskolin or 0.2 μM H-89 15 min before cytokines / LPS
Experimental: (§2) Immunoblot analysis for iNOS Following 24 h incubation in the presence or absence of stimuli by different cytokines or LPS, macrophages were scraped off, washed with Hank's buffer, and homogenized in 50 mM Tris-HCl (pH 7.4) containing protease inhibitors (1 nM PMSF, 5 μg/ml aprotinin, 5 μg/ml pepstatin A, and 5 μg/ml leupeptin). After electrophoresis the proteins were transferred onto a nitrocellulose membrane, and the iNOS band was visualized by immunoblotting with antibodies against mouse macrophage iNOS and [^125I]-labeled protein A (Singh et al., 1988).
RNA isolation, Northern blot analysis, and reverse-transcriptase coupled polymerase chain reaction (RT-PCR) Stimulated peritoneal macrophages were taken out from culture dishes directly by adding Ultraspec-II RNA reagent (Biotecx Laboratories Inc.) and total RNA was isolated according to the manufacturer's protocol. For northern blot analyses, 20 μg of total RNA was electrophoresed on 1.2% denaturing formaldehyde-agarose gels, electrotransferred to Hybond-Nylon Membrane (Amersham) and hybridized at 68° C. with ^32P-labeled cDNA probe using Express Hyb hybridization solution (Clontech) as described by the manufacturer. […]; After hybridization filters were washed two to three times in solution I (2×SSC, 0.05% SDS) for 1 h at room temperature followed by solution II (0.1×SSC, 0.1% SDS) at 50° C. for another hour. The membranes were then dried and exposed to X-ray film (Kodak). The same filters were stripped and rehybridized with probes for GAPDH. The relative mRNA content for iNOS was measured after scanning the bands with a Biorad (Model GS-670) imaging densitometer.
as §2, with “of” for “of stimuli by”, “stimuli, cells” for “cytokines or LPS, macrophages”, “inhibitors.” for “inhibitors (1 nM PMSF, 5 μg/ml aprotinin, 5 μg/ml pepstatin A, and 5 μg/ml leupeptin).”, “A.” for “A (Singh et al., 1988).”
RNA isolation and Northern blot analysis Cells were taken out from culture dishes directly by adding Ultraspec-II RNA reagent (Biotecx Laboratories Inc.) and total RNA was isolated according to the manufacturer's protocol. For Northern blot analyses, 20 μg of total RNA was electrophoresed on 1.2% denaturing formaldehyde-agarose gels, electrotransferred to Hybond-Nylon Membrane (Amersham) and hybridized at 68° C. with ^32P-labeled cDNA probe using Express Hyb hybridization solution (Clontech) as described by the manufacturer. […]; After hybridization filters were washed two or three times in solution I (2×SSC, 0.05% SDS) for one hour at room temperature followed by solution II (0.1×SSC, 0.1% SDS) at 50° C. for another hour. The membranes were then dried and exposed with X-ray films (Kodak). The same filters were stripped and rehybridized with probes for GAPDH. The relative mRNA content for iNOS was measured after scanning the bands with a Biorad (Model GS-670) imaging densitometer.
as §2, with “After a” for “Following”, “of” for “of stimuli by”, “stimuli, cells” for “cytokines or LPS, macrophages”, “mM” for “nM”, “A.” for “A (Singh et al., 1988).”
RNA isolation and Northern blot analysis Cells were taken out from culture dishes directly by adding Ultraspec-II RNA reagent (Biotecx Laboratories Inc., Houston, Tex.), and total RNA was isolated according to the manufacturer's protocol. […]

[2] = system: IL-1β production in rat primary microglia; test: LPS-induced IL-1β production (ELISA) in rat primary microglia; type: cell-based
Experimental: as §1

[3] = system: control human skin fibroblasts; test: β-oxidation of lignoceric acid in control human skin fibroblasts; type: cell-based; conditions: 72 h
[4] = system: cultured skin fibroblasts of X-ALD; test: VLCFA ratios (C26:0/C22:0, C24:0/C22:0) in X-ALD skin fibroblasts; type: cell-based, human; conditions: about 15 days of treatment
[5] = system: NOS activity in rat resident macrophages; test: NOS activity (L-citrulline from L-arginine) in homogenates of treated rat resident macrophages; type: cell-based; conditions: LPS 1.0 μg/ml, 24 h
Experimental: NOS activity was measured directly by production of L-[2,3,4,5-^3H]citrulline from L-[2,3,4,5-^3H] arginine (Feinstein et al., 1994a). […] Assays were carried out for 30 to 40 min and the production of L-[2,3,4,5-^3H] citrulline was linear. The reactions were stopped by addition of 800 μl of ice-cold 20 mM HEPES (pH 5.5) followed by addition of 2 ml of Dowex-50W equilibrated in the same buffer. The samples were then centrifuged and the concentration of L-[^3H]citrulline was determined in the supernatant by liquid scintillation counting.

[6] = system: ceramide production in rat primary astrocytes; test: Degradation of sphingomyelin to ceramide (DAG kinase assay, HPTLC) in rat primary astrocytes; type: cell-based; conditions: 10 mM NAC or 100 μM PDTC 1 h before TNF-α or IL-1β (50 ng/ml), diamide 0.5 mM or aminotriazole 5 mM
Experimental: Lipid extraction Approximately 1.0×10^6 cells were exposed to different cytokines in the presence or absence of antioxidants for different periods and lipids were extracted according to the methods described by Welsh (1996).
Quantification of sphingomyelin by HPTLC and densitometry Sphingomyelin was separated from total lipid extracts by HPTLC (LPK-plates from Whatman Labsales, USA) as described (Ganser et al., 1988) for phospholipids with the modification, that the plate was overrun for 30 min during its development and was dried overnight in vacuum desicator. Sphingomyelin was quantitated by densitometric scanning using Imaging Densitometer (Model GS-670; Bio-Rad, USA) and software provided with the instrument by the manufacturer.
Quantification of ceramide levels by diacylglycerol kinase assay Ceramide content was quantified essentially according to Priess et al. using diacylglycerol (DAG) kinase and [γ-^32P]ATP (Priess et al., 1986). Briefly, dried lipids were solubilized in 20 μl of an octyl β-D-glucoside/cardiolipin solution (7.5% octyl β-D-glucoside, 5 mM cardiolipin in 1 mM DTPA) by sonication in a sonicator bath. […] The labeled ceramide 1-phosphate was resolved with a solvent system consisting of methyl acetate: n-propanol:chloroform:methanol:0.25% KCl in water:acetic-acid (100:100:100:40:36:2). A standard sample of ceramide was phosphorylated under identical conditions and developed in parallel. […] Quantification of ceramide 1-phosphate was carried out by autoradiography and densitometric scanning using Imaging Densitometer (Model GS-670; Bio-Rad, USA). Values are expressed either as arbitrary units (absorbance) or as percent change.
Lipid Extraction Approximately 1.0×10^6 cells were exposed to different cytokines in the presence or absence of antioxidants for different periods, and lipids were extracted according to the methods described by Welsh (1996).
Quantification of Sphingomyelin by High Performance TLC and Densitometry Sphingomyelin was separated from total lipid extracts by high performance TLC (LHPK plates from Whatman) as described by Ganser et al. (1988) for phospholipids with the following modification: the plate was overrun for 30 min during its development and was dried overnight in vacuum desiccator. Sphingomyelin was quantitated by densitometric scanning using Imaging Densitometer (model GS-670; Bio-Rad), and software was provided with the instrument by the manufacturer.
Quantification of Ceramide Levels by Diacylglycerol Kinase Assay Ceramide content was quantified essentially according to Priess et al. (1986) using diacylglycerol (DAG) kinase and [γ-^32P]ATP. Briefly, dried lipids were solubilized in 20 μl of an octyl β-D-glucoside/cardiolipin solution (7.5% octyl β-D-glucoside, 5 mM cardiolipin in 1 mM DTPA) by sonication in a sonicator bath. […] The labeled ceramide-1-phosphate was resolved with a solvent system consisting of methyl acetate:n-propyl alcohol:chloroform:methanol, 0.25% KCl in water:acetic acid (100:100:100:40:36:2). A standard sample of ceramide was phosphorylated under identical conditions and developed in parallel. […] Quantification of ceramide-1-phosphate was carried out by autoradiography and densitometric scanning using Imaging Densitometer (model GS-670; Bio-Rad). Values are expressed either as arbitrary units (absorbance) or as percent change.

[7] = system: TNF-α production in rat resident macrophages; test: LPS-/IFN-γ-induced TNF-α production (ELISA) in rat macrophages; type: cell-based
Experimental: Resident macrophages cultured in serum-free RPMI 1640 medium received 20 mM NAC or 100 μM PDTC 2 h before the addition of stimuli. When stimuli were used separately their concentrations were: LPS, 1.0 μg/ml; IFN-γ, 200 U/ml, and when they were used together, their concentrations were: LPS, 0.2 μg/ml; IFN-γ, 50 U/ml. Supernatants were collected 24 h after the addition of stimuli to measure TNF-α concentration using ELISA as described.

## O=S(=O)(NCCNC/C=C/c1ccc(Br)cc1)c1cccc2cnccc12 [H-89]
[1]
  LPS-induced production of TNF-α: stimulated the production of these proinflammatory cytokines in rat primary microglia
iNOS
  cytokine-induced expression of iNOS: stimulated the cytokine-induced expression of iNOS
[2]
  LPS-induced production of IL-1β: stimulated the production of these proinflammatory cytokines in rat primary microglia
[3]; forskolin 4 μM, 1,9 dideoxy forskolin 4 μM, 8-Br-cAMP 50 μM, H-89 1 μM, myristoylated PKI 0.2 μM, Control 565.2 ± 48.3
  Lignoceric acid β-oxidation: 405.6 ± 44.1 pmol/h/mg protein
[4]
  ratios of C26:0/C22:0 and C24:0/C22:0 / level of VLCFA: blocked the observed effect of forskolin on the level of VLCFA

## CC[C@H](C)C(=O)O[C@H]1CCC=C2C=C[C@H](C)[C@H](CC[C@@H]3C[C@@H](O)CC(=O)O3)[C@H]21 [Mevastatin]
[3]; Lovastatin 5 μM, Mevastatin 5 μM, NaPA 5 mM, Control 570.2 ± 52.3
  Lignoceric acid β-oxidation: 889.6 ± 78.4 pmol/h/mg protein

## S=C(S)N1CCCC1 [PDTC, pyrrolidine dithiocarbamate]
[5]
  LPS-induced NOS activity, L-citrulline formation: inhibited LPS-induced NOS activity
[6]
  degradation of sphingomyelin to ceramide / ceramide production: potentially blocked the decrease in sphingomyelin as well as the increase in ceramide; also recorded: also inhibited cytokine-mediated degradation of SM to ceramide
[7]; LPS 0.2 μg/ml + IFN-γ 50 U/ml, 20 mM NAC or 100 μM PDTC 2 h before
  Inhibition (%): 96%
[7]; LPS 0.2 μg/ml + IFN-γ 50 U/ml, 20 mM NAC or 100 μM PDTC 2 h before, 24 h
  TNF-α: 1.4 ± 0.3 ng/24 h/mg protein
[7]; LPS 1.0 μg/ml, 20 mM NAC or 100 μM PDTC 2 h before
  Inhibition (%): 95%
[7]; LPS 1.0 μg/ml, 20 mM NAC or 100 μM PDTC 2 h before, 24 h
  TNF-α: 0.9 ± 0.1 ng/24 h/mg protein
[7]; antioxidant alone (20 mM NAC or 100 μM PDTC), no stimulus
  TNF-α: 0.7 ± 0.2 ng/24 h/mg protein
